Data: US20100143475A1, “TRANSDERMAL THERAPEUTIC SYSTEM WITH TWO-PHASE RELEASE PROFILE” (priority 2006, published 2010)
Read-outs that look alike come from different tables or passages of the source.

How the values were obtained:
[1] = double blind, oral, PDR 58, 2004, cited from earlier work
[2] = difference to placebo
[3] = cited from earlier work
[4] = Oral ropinirole trial, comparison of central side effects (Table 5); assay type: in vivo, human; conditions: difference to placebo, up to 24 mg (8 mg TID), 6 months
[5] = oral, cited from earlier work
[6] = Double blind comparison of oral lisuride and placebo in 20 patients with Parkinson's disease; conditions: up to maximum tolerance dose of 5 mg daily, immediate-release tablet, eight of 20 patients
Text: The dosage of other active substances was kept unchanged during the trial.

[7] = 20 cm^2 TTS, plasma
Text: The application site was the upper arm and changed from one arm to the other between two successive periods.

[8] = oral, 4.5 mg or max. tol. dose, 7 weeks dose esc. +4 weeks
[9] = oral, 4.5 mg or max. tol. dose daily, 7 weeks dose esc. +4 weeks
[10] = up to 24 mg (8 mg TID) daily, 6 months
[11] = difference to placebo (footnote: less than placebo), transdermal, 2 (20 cm^2) QOD, 14 weeks
[12] = difference to placebo, transdermal, 2 (20 cm^2) QOD, 14 weeks
[13] = transdermal, 2 (20 cm^2) QOD, 14 weeks, 335 Parkinsonism patients

For `C=CCN1C[C@H](C(=O)N(CCCN(C)C)C(=O)NCC)C[C@@H]2c3cccc4[nH]cc(c34)C[C@H]21` [Cabergoline], the “GI side effects: Nausea/vomiting (%)” value ([1]; dose range 0.25-1.0 mg, n = 221) is given as 29.0%.
For `CCCN[C@H]1CCc2nc(N)sc2C1` [Pramipexol], the “Hallucinations Δ” value ([2]; 8 month trial) was 13, the “Confusion Δ” value [2, 8] was 3 and the “Dizziness Δ” value [2, 8] was 0.2. The “Drownsiness Δ” value [2, 8] was 2, the “Dyskinesias Δ” value [2, 8] was 10.2 and the “Fatigue Δ” value [2, 8] was 24.9. For the same molecule, the “Hypotension Δ” value [2, 8] was 6.5, the “Nausea Δ” value [2, 8] was 2 and the “Other psych.* Δ” value [2, 8] was 12.4. The “GI side effects: Nausea/vomiting (%)” value ([1]; dose range 0.375-4.5 mg, n = 388) was 12.4%, the “patients who reported hallucinations” value ([3]; 8 month trial) was 17% and the “Other psych.*” value ([3]; amnesia, fear, abnormal dreams, nervousness, delusions, paranoid reactions, sleeplessness, oral, 4.5 mg or max. tol. dose, 7 weeks dose esc. +4 weeks) was 28.3. The Confusion [3, 9] was 10, the Dizziness [3, 9] was 2.9 and the Drownsiness [3, 9] was 9. The Dyskinesias [3, 9] was 14.7, the Fatigue [3, 9] was 29.4 and the Hypotension [3, 9] was 8.8. For the same molecule, the Nausea [3, 9] was 8.8.
For `CCCN(CCC)CCc1cccc2c1CC(=O)N2` [Ropinirol], the “Confusion Δ” value [4] was 7, the “Dizziness Δ” value [4] was 10 and the “Drownsiness Δ” value [4] was 12. For the same molecule, the “Dyskinesias Δ” value [4] was 21, the “Hallucinations Δ” value [4] was 6 and the “Hypotension Δ” value [4] was 1. The “Nausea Δ” value [4] was 12, the “Other psych.* Δ” value [4] was 10 and the “Syncope Δ” value [4] was 1. The “Vomiting Δ” value [4] was 3, the “GI side effects: Nausea/vomiting (%)” value ([1]; dose range 0.5-5.0 mg, n = 157) was 45.8% and the “Other psych.*” value ([5]; amnesia, fear, abnormal dreams, nervousness, delusions, paranoid reactions, sleeplessness, up to 24 mg (8 mg TID), 6 months) was 19. For the same molecule, the Confusion [5, 10] was 9, the Dizziness [5, 10] was 26 and the Drownsiness [5, 10] was 20. For the same molecule, the Dyskinesias [5, 10] was 34, the Hallucinations [5, 10] was 10 and the Hypotension [5, 10] was 2. For the same molecule, the Nausea [5, 10] was 30, the Syncope [5, 10] was 3 and the Vomiting [5, 10] was 7. The Fatigue ([5]; data from restless legs study) was 8^♦.
In the case of `CCN(CC)C(=O)N[C@H]1C=C2c3cccc4[nH]cc(c34)CC2N(C)C1` (some centres unmarked) [Lisuride, lisuride], the “Gastrointestinal symptoms, in particular nausea (patients)” value [6] is reported as 40%, the “Transition level” value ([7]; First application) is reported as 32 pg/mL and the Peak level ([7]; Fourth application) is reported as 140 pg/mL. The “Transition level” value ([7]; Fourth application) was 32 pg/mL, the Peak level ([7]; Second application) was 125 pg/mL and the “Transition level” value ([7]; Second application) was 23 pg/mL. For the same molecule, the Peak level ([7]; Third application) was 130 pg/mL, the “Transition level” value ([7]; Third application) was 31 pg/mL and the “Other psych.*” value (amnesia, fear, abnormal dreams, nervousness, delusions, paranoid reactions, sleeplessness, transdermal, 2 (20 cm^2) QOD, 14 weeks) was 8. The “Skin reactions resulting in discontinuation Δ” value (difference to placebo) was 11.3, the “Dizziness Δ” value [11] was 0^♡ and the “Other psych.* Δ” value [11] was 0^♡. For the same molecule, the “Confusion Δ” value [12] was 1.2, the “Drownsiness Δ” value [12] was 1.8 and the “Dyskinesias Δ” value [12] was 4.1. The “Fatigue Δ” value [12] was 1, the “Hallucinations Δ” value [12] was 3.6 and the “Hypotension Δ” value [12] was 1.2. For the same molecule, the “Nausea Δ” value [12] was 0.6, the “Syncope Δ” value [12] was 0 and the “Vomiting Δ” value [12] was 0.6. For the same molecule, the “Skin reactions resulting in discontinuation” value (lisuride group, transdermal, 14 weeks) was 12.5%, the Confusion [13] was 1.2 and the Dizziness [13] was 0.6. It also gave a Drownsiness [13] of 3.6, a Dyskinesias [13] of 7.1 and a Fatigue [13] of 1. The Hallucinations [13] was 5.4, the Hypotension [13] was 2.4 and the Syncope [13] was 0. The Vomiting [13] was 1.2.
For `CC(C)C[C@H]1C(=O)N2CCC[C@H]2[C@]2(O)O[C@](NC(=O)[C@@H]3C=C4c5cccc6[nH]c(Br)c(c56)C[C@H]4N(C)C3)(C(C)C)C(=O)N12` [Bromocriptine], the “GI side effects: Nausea/vomiting (%)” value ([1]; dose range 5.0-30.0 mg, n = 231) is given as 43%.
